Assay results from patent US5366726A (priority 1992, dated 1994).

How the values were obtained:
[1] = system: Pneumocystis carinii; details: in vivo; cited from earlier work
[2] = TMP-SMX oral or parenteral; pentamidine isethionate parenteral; cited from earlier work
[3] = system: Pneumocystis carinii; details: human, in vivo; cited from earlier work
[4] = system: Pneumocystis carinii; test: Example 8: randomized clinical trial, prevention of PCP; assay type: in vivo, human; details: AZT use

NCCC[C@](N)(C(=O)O)C(F)F [DFMO, α-difluoromethylornithine]
efficacy in rat PCP model [1]: not efficacious

N=C(N)c1ccc(OCCCCCOc2ccc(C(=N)N)cc2)cc1 [pentamidine isethionate]
patients developing severe toxicity requiring discontinuation [2]: approximately 50%

COc1cc(NCc2ccc3nc(N)nc(N)c3c2C)cc(OC)c1OC [trimetrexate]
relapse rates within one month [3]: high

Cc1cn([C@H]2C[C@H](N=[N+]=[N-])[C@@H](CO)O2)c(=O)[nH]c1=O [zidovudine]
independent reduction of PCP risk, Cox models [4]: two-fold
